Source: patent US20090275474A1, “PESTICIDAL APPLICATIONS OF DIMETHYL CYANAMIDE” (Metbro Distributing L.P., priority 2008, published 2009)
“Also recorded” adds a separate entry of the source.

How the values were obtained:
Assay type in all cases: in vivo
[1] = tested on: dorylaimida (predatory, not plant parasitic nematodes); experiment: Example 2 pot test, soil populations of dorylaimida; conditions: soil drench 20-150 mgs. A.I./kg soil
Method: (§1) Dimethyl cyanamide and diisopropyl cyanamide (both obtained from Aldrich) were delivered in aqueous preparations (1.25% active ingredient) (A.I.) prepared immediately before use by diluting in demineralized water while stirring with a magnetic stirrer. […] Each compound was delivered at rates of 0, 20, 40, 60, 80, 100, and 150 mgs. A.I./kg soil—equivalent to […].
(§2) Each treatment was delivered by drenching in 100 mL aqueous volume onto the soil surface in pots (10-cm diam.; PVC) containing 1 kg soil. The soil (silt loam; pH 6.2; cec<10 meq/100 gm soil; org. matter<1.0%) was from a cotton field severely infested with the reniform nematode [Rotylenchulus reniformis]. Immediately after treatment the pots were covered by a thick (1.5 mil) clear low density polyethylene bag held tight against the outer wall of the pot by a rubber band. Eleven days after application the bags were removed and soil samples were taken from every pot (experimental unit) for nematological analysis (salad bowl incubation technique). […] Final root and soil nematode populations were determined and plant growth parameters (number and height of plants, weights of shoots and roots, root condition indices) were recorded. […]

[2] = tested on: beneficial microbivorous nematodes; experiment: Example 2 pot test, microbivorous nematodes in soil; conditions: soil drench 20-150 mgs. A.I./kg soil
Method: as §1, §2

[3] = tested on: beneficial microbivorous nematodes; experiment: Example 1 pot test, microbivorous nematodes in soil; conditions: soil drench 25-200 mg A.I./kg soil
Method: (§3) Hydrogen cyanamide (Dormex® formulation, Dormex Corp.) and dimethyl cyanamide (Aldrich) were delivered in aqueous preparations (1.25% active ingredient) (A.I.) prepared immediately before use by diluting in demineralized water while stirring with a magnetic stirrer. Each compound was delivered at rates of 0, 25, 50, 75, 100, 150, and 200 mg A.I./kg soil—equivalent to 0, 50, 100, 150, 200, 300, and 400 lbs A.I./acre.
as §2, with “drenching the compound” for “drenching”, “nematode (Rotylenchulus reniformis).” for “nematode [Rotylenchulus reniformis].”, “covered with” for “covered by”, “(number &” for “(number and”

[4] = tested on: reniform nematode (Rotylenchulus reniformis); experiment: Example 1 pot test, soil drench, reniform nematode in soil and soybean roots; conditions: for nematicidal activity against the reniform nematode in soil and soybean roots: soil drench 25-200 mg A.I./kg soil, soil sampled 11 days after application and after eight weeks of soybean growth, FIGS. 1-6
Method: as §3
Each treatment was delivered by drenching the compound in 100 mL aqueous volume onto the soil surface in pots (10-cm diam.; PVC) containing 1 kg soil. The soil (silt loam; pH 6.2; cec<10 meq/100 gm soil; org. matter<1.0%) was from a cotton field severely infested with the reniform nematode (Rotylenchulus reniformis). Immediately after treatment the pots were covered with a thick (1.5 mil) clear low density polyethylene bag held tight against the outer wall of the pot by a rubber band. Eleven days after application the bags were removed and soil samples were taken from every pot (experimental unit) for nematological analysis (salad bowl incubation technique). Each pot was then planted with five seeds of nematode-susceptible “Hutcheson” soybean (glycine max) and the resulting plants were grown for eight weeks, at which time the plants were removed and soil samples were taken from each pot. Final root and soil nematode populations were determined and plant growth parameters (number & height of plants, weights of shoots and roots, root condition indices) were recorded.
Major pests: The reniform nematode [Rotylenchulus reniformis].
(§4) Experimental design: Randomized complete block with seven replications/treatment.
(§5) Statistical analyses: ANOVA and Fischer's least significant difference [FLSD] at p 0.05. Regression analyses.

[5] = tested on: Yellow nutsedge [Cyperus esculentus], crabgrass [Digitaria sanguinalis], sicklepod [Senna obtusifolia], morningglory [Ipomoea spp.], and other annual weeds; experiment: Example 3 herbicidal pot test, soil drench, weed counts; conditions: for herbicidal activity against all weed species tested: soil drench 100-800 mgs. A.I./kg soil, weed counts 11, 19, 26 and 32 days after application, FIGS. 11-12
Method: Hydrogen cyanamide and dimethyl cyanamide were delivered in aqueous 5% solutions prepared immediately before use by diluting in demineralized water while stirring with a magnetic stirrer. Both chemicals were obtained from Aldrich. Each compound was delivered at rates of 0, 100, 200, 300, 400, 600, and 800 mgs. A.I./kg soil—equivalent to 0, 200, 400, 600, 800, 1200, and 1600 lbs A.I./acre.
(§6) Each treatment was delivered by drenching in 100 mL aqueous volume onto the soil surface in pots [10-cm diam.; PVC] containing 1 kg soil. The soil was from a cotton field [silt loam; ph 6.2; cec<10 meq/100 gm soil; org. matter<1.0%]. Immediately after treatment the pots were covered by a thick [1.5 mil] clear low density polyethylene bag held tight against the outer wall of the pot by a rubber band. Eleven days after application the bags were removed. Weed counts were taken from each pot [experimental unit] at 11, 19, 26 and 32 days after application of the treatments.
Major pests: Yellow nutsedge [Cyperus esculentus], crabgrass [Digitaria sanguinalis], sicklepod [Senna obtusifolia], morningglory [Ipomoea spp.], and other annual weeds.
Experimental design: Randomized complete block with seven replications/treatments.
as §5

[6] = tested on: dorylaimida (predatory, not plant parasitic nematodes); experiment: Example 1 pot test, soil populations of dorylaimida; conditions: soil drench 25-200 mg A.I./kg soil
Method: as §3
as §2, with “drenching the compound” for “drenching”, “nematode (Rotylenchulus reniformis).” for “nematode [Rotylenchulus reniformis].”, “covered with” for “covered by”, “(number &” for “(number and”

[7] = tested on: "Hutcheson" soybean (glycine max); experiment: Example 1 pot test, growth of soybean plants in nematode-infested soil; conditions: after eight weeks of growth
Method: as §3
as §2, with “drenching the compound” for “drenching”, “nematode (Rotylenchulus reniformis).” for “nematode [Rotylenchulus reniformis].”, “covered with” for “covered by”, “(number &” for “(number and”

[8] = tested on: "Rowden" cotton (Gossipyum hirsutum); experiment: Example 2 pot test, growth and root health of cotton plants in nematode-infested soil
Method: as §1
Each treatment was delivered by drenching in 100 mL aqueous volume onto the soil surface in pots (10-cm diam.; PVC) containing 1 kg soil. The soil (silt loam; pH 6.2; cec<10 meq/100 gm soil; org. matter<1.0%) was from a cotton field severely infested with the reniform nematode [Rotylenchulus reniformis]. Immediately after treatment the pots were covered by a thick (1.5 mil) clear low density polyethylene bag held tight against the outer wall of the pot by a rubber band. Eleven days after application the bags were removed and soil samples were taken from every pot (experimental unit) for nematological analysis (salad bowl incubation technique). Each pot was then planted with five seeds of nematode-susceptible “Rowden” cotton (Gossipyum hirsutum) and the resulting plants were grown for eight weeks, at which time the plants were removed and soil samples were taken from each pot. Final root and soil nematode populations were determined and plant growth parameters (number and height of plants, weights of shoots and roots, root condition indices) were recorded.
as §4
Statistical analyses: ANOVA and Fischer's least significant difference [FLSD] at p
0.05. Regression analyses.

[9] = tested on: Yellow nutsedge [Cyperus esculentus], crabgrass [Digitaria sanguinalis], sicklepod [Senna obtusifolia], morningglory [Ipomoea spp], and other annual weeds; experiment: Example 4 herbicidal pot test, dimethyl cyanamide alone and in combination with EPTC, weed counts
Method: Dimethyl cyanamide was delivered in a 5% aqueous solution. The herbicide EPTC [ethyl n-propyl thiocarbamate] was delivered in an aqueous emulsion containing 0.1192% A.I. Both formulations were prepared immediately before use by diluting or mixing [a concentrated formulation?] in demineralized water while stirring with a magnetic stirrer. The dimethyl cyanamide was obtained from Aldrich. The EPTC used was a commercial formulation [Eptam® herbicide, Gowan].
Dimethyl cyanamide was applied at rates of 0, 50, 100, 200, 300, and 400 mg A.I./kg soil—equivalent to 0, 100, 200, 400, 600, and 800 lbs A.I./acre, respectively. EPTC was delivered at 0 and 3.576 mg/kg soil, equivalent to 0 and approximately 7 lbs. A.I./acre. All possible combinations of the two compounds at their corresponding rates were included in the experiment.
as §6, with “matter<1.0%1.” for “matter<1.0%].”, “Six” for “Eleven”, “6, 12, 17, 47,” for “11, 19, 26”, “62” for “32”, “treatments. […]” for “treatments.”

[10] = tested on: reniform nematode [Rotylenchulus reniformis]; experiment: Example 2 pot test, soil drench, reniform nematode in soil; conditions: soil drench 20-150 mgs. A.I./kg soil; FIGS. 7-10
Method: as §1, §2

| Structure (SMILES) | soil populations of dorylaimida [1] | soil populations of beneficial microbivorous nematodes [2] | effect on beneficial microbivorous nematodes [3] | nematicidal activity against the reniform nematode in soil and soybean roots [4] | root populations of the reniform nematode, compared between the two compounds ([4]; soybean roots after eight weeks, hydrogen cyanamide vs dimethyl cyanamide) | herbicidal activity against all weed species tested [5] | soil populations of dorylaimida [6] | effectiveness as a nematicide relative to hydrogen cyanamide ([4]; considered in terms of the rates of cyanamide anion applied) | overall results on delivery at the same rate (kg/ha) as hydrogen cyanamide ([4]; same weight rate, hydrogen cyanamide contains approximately 1.66 times as much cyanamide (NCN group)) | soybean plant height and weights of shoots and roots, compared with pots treated with hydrogen cyanamide [7] | root health as indicated by root appearance indices ([8]; dimethyl cyanamide: two highest rates, diisopropyl cyanamide: any rate) | number of cotton plants/pot, dimethyl cyanamide vs diisopropyl cyanamide ([8]; in vivo) | cotton plant heights and shoot and root weights ([8]; two highest rates, after eight weeks) | herbicidal activity compared with hydrogen cyanamide ([5]; dose-response expressed in terms of mg of CN added to the soil, one exception (sicklepod)) | herbicidal activity of dimethyl cyanamide during the initial counts in the presence of EPTC [9] | nematicidal activity against the reniform nematode in soil [10] |
| --- | --- | --- | --- | --- | --- | --- | --- | --- | --- | --- | --- | --- | --- | --- | --- | --- |
| CC(C)N(C#N)C(C)C [diisopropyl cyanamide, reference compound] | either reduced or not affected | either reduced or not affected |  |  |  |  |  |  |  |  |  |  |  |  |  |  |
| N#CN [hydrogen cyanamide, Hydrogen cyanamide, reference compound] |  |  | not significantly affected | nematicidal, resulting in suppression or elimination of the reniform nematode in soil and soybean roots | lower | herbicidal against all weed species tested | similarly reduced |  |  |  |  |  |  |  |  |  |
| CN(C)C#N [dimethyl cyanamide, Dimethyl cyanamide] | either reduced or not affected | either reduced or not affected | not significantly affected | nematicidal, resulting in suppression or elimination of the reniform nematode in soil and soybean roots; also recorded: powerful nematicide |  | herbicidal against all weed species tested; also recorded: considerable herbicidal activity equivalent to or better than that shown by hydrogen cyanamide | similarly reduced | more effective as a nematicide than hydrogen cyanamide | very similar results overall | taller and with heavier shoots and roots | markedly improved | higher | concomitant increase | superior to hydrogen cyanamide as a herbicide | almost “masked” by that of EPTC | nematicidal, resulting in suppression or elimination of the reniform nematode in soil; also recorded: powerful nematicide |
